Data published in ChEMBL document CHEMBL1154960, “Development of improved inhibitors of wall teichoic acid biosynthesis with potent activity against Staphylococcus aureus” (Bioorg Med Chem Lett, 2010).
≈ marks a conversion by molar mass, not a printed value. Blank lines part the entries; values can stand above or below the compound they belong to. Calls of active or inactive are those of the source. No cut-off for these calls is given here.

Key:
Staphylococcus aureus [1] = assay: Antibacterial activity against Staphylococcus aureus RN4220 assessed as growth inhibition at 100 uM after 12 hrs by optical density plate reader method; format: functional
Staphylococcus aureus [2] = assay: Antibacterial activity against tarO deficient Staphylococcus aureus RN4220 assessed as growth inhibition at 100 uM after 12 hrs by optical density plate reader method; format: functional; conditions: RN4220, 12 h, read-out: GI
Staphylococcus aureus [3] = assay: Antibacterial activity against Staphylococcus aureus RN4220 after 12 hrs by optical density plate reader method; format: functional
Staphylococcus aureus [4] = assay: Antibacterial activity against tarO deficient Staphylococcus aureus RN4220 after 12 hrs by optical density plate reader method; format: functional; conditions: RN4220, 12 h
Staphylococcus aureus [5] = assay: Antibacterial activity against Staphylococcus aureus RN4220 assessed as cell survival at 100 uM after 12 hrs by optical density plate reader method; format: functional; conditions: RN4220, 12 h
Staphylococcus aureus [6] = assay: Antibacterial activity against tarO deficient Staphylococcus aureus RN4220 assessed as cell survival at 100 uM after 12 hrs by optical density plate reader method; format: functional; conditions: RN4220, 12 h
Staphylococcus aureus [7] = assay: Antibacterial activity against methicillin-sensitive Staphylococcus aureus RN6390 after 12 hrs by optical density plate reader method; format: functional; conditions: RN6390, 12 h
Staphylococcus aureus [8] = assay: Antibacterial activity against methicillin-sensitive Staphylococcus aureus Newman after 12 hrs by optical density plate reader method; format: functional
Staphylococcus aureus [9] = assay: Antibacterial activity against methicillin-resistant Staphylococcus aureus COL after 12 hrs by optical density plate reader method; format: functional
Staphylococcus aureus [10] = assay: Antibacterial activity against methicillin-resistant Staphylococcus aureus MW2 after 12 hrs by optical density plate reader method; format: functional; conditions: MW2, 12 h
Mus musculus [11] = assay: Toxicity in CD1 mouse at 100 mg/kg, iv; format: organism-based; parameters: dose 100 mg/kg, route intravenous; conditions: in vivo
Mus musculus [12] = assay: Toxicity in CD1 mouse at 75 mg/kg, iv after 24 hrs; format: organism-based; parameters: dose 75 mg/kg, route intravenous; conditions: in vivo
Staphylococcus aureus [13] = assay: Antibacterial activity against Staphylococcus aureus RN4220 after 12 hrs by optical density plate reader method in presence of 50% fetal bovine serum; format: functional
Staphylococcus aureus [14] = assay: Bacteriostatic activity against Staphylococcus aureus RN4220 assessed as reduction in CFU at 8 times MIC up to 8 hrs by kill curve analysis; format: functional, organism-based
[15] = Staphylococcus aureus, RN4220, 12 h, read-out: GI
[16] = Staphylococcus aureus, RN4220, 12 h, read-out: MIC

Compound: CCN(CC)c1nc2c(S(=O)(=O)c3ccccc3)nnn2c2cc(Cl)ccc12
- inhibition of growth at 100 µM (Staphylococcus aureus [1]; [15]): < 30%
- inhibition of growth at 100 µM (Staphylococcus aureus [2]): < 30%

- MIC (Staphylococcus aureus [3]; [16]): 3.1 µM (≈ 1.5 µg/mL)
Compound: CCCCN(CC)c1nc2c(S(=O)(=O)c3ccc(C)cc3)nnn2c2cc(OC)c(OC)cc12

Compound: CCN(CC)c1nc2c(S(=O)(=O)c3ccccc3)nnn2c2cc(C)ccc12
- inhibition of growth at 100 µM (Staphylococcus aureus [1]; [15]): < 30%
- inhibition of growth at 100 µM (Staphylococcus aureus [2]): < 30%

Compound: COc1cc2c(N3CCc4ccccc4C3)nc3c(S(=O)(=O)c4ccc(C)cc4)nnn3c2cc1OC
- inhibition of growth at 100 µM (Staphylococcus aureus [1]; [15]): 31%
- inhibition of growth at 100 µM (Staphylococcus aureus [2]): > 70%

Compound: CCN(CC)c1nc2c(S(=O)(=O)c3ccccc3)nnn2c2cc3c(cc12)OCCO3
- inhibition of growth at 100 µM (Staphylococcus aureus [1]; [15]): < 30%
- inhibition of growth at 100 µM (Staphylococcus aureus [2]): < 30%

Compound: CCCN(CCOC)c1nc2c(S(=O)(=O)c3ccc(C)cc3)nnn2c2cc(OC)c(OC)cc12
- inhibition of growth at 100 µM (Staphylococcus aureus [1]; [15]): 31%

- MIC (Staphylococcus aureus [3]; [16]): 2.5 µM (≈ 1.22 µg/mL)
Compound: CCN(c1nc2c(S(=O)(=O)c3ccc(Cl)cc3)nnn2c2cc(OC)c(OC)cc12)C(C)C
- inhibition of growth at 100 µM (Staphylococcus aureus [2]): < 30%

- MIC (Staphylococcus aureus [4]): 100 µM (≈ 46 µg/mL)
Compound: CCN(CC)c1nc2c(S(=O)(=O)c3ccccc3)nnn2c2cc(Br)ccc12
- inhibition of growth at 100 µM (Staphylococcus aureus [1]; [15]): > 31%

Compound: Cn1c(=O)c2c(-c3ccccc3)n3c(c2n(C)c1=O)C(c1ccccc1[N+](=O)[O-])Nc1ccccc1-3 (configuration not stated)
- survival at 100 µM (Staphylococcus aureus [5]): 79%
- survival at 100 µM (Staphylococcus aureus [6]): 86%

- MIC (Staphylococcus aureus [3]; [16]): 1.6 µM (≈ 0.751 µg/mL)
Compound: CCN(c1nc2c(S(=O)(=O)c3ccc(C)cc3)nnn2c2cc(OC)c(OC)cc12)C(C)C

Compound: COc1ccccc1C1Nc2ccccc2-n2c(-c3ccccc3)c3c(=O)n(C)c(=O)n(C)c3c21 (configuration not stated)
- survival at 100 µM (Staphylococcus aureus [5]): 85%
- survival at 100 µM (Staphylococcus aureus [6]): 123%

Compound: COc1ccc(O)c(C2Nc3ccccc3-n3c(-c4ccccc4)c4c(=O)n(C)c(=O)n(C)c4c32)c1 (configuration not stated)
- survival at 100 µM (Staphylococcus aureus [5]): 20%
- survival at 100 µM (Staphylococcus aureus [6]): 40%

Compound: COc1ccc(-c2c3c(=O)n(C)c(=O)n(C)c3c3n2-c2ccccc2NC3c2ccc(OC)cc2)cc1 (configuration not stated)
- survival at 100 µM (Staphylococcus aureus [5]): 93%
- survival at 100 µM (Staphylococcus aureus [6]): 88%

Compound: Cn1c(=O)c2c(-c3ccc(Cl)cc3)n3c(c2n(C)c1=O)C(c1ccccc1)Nc1ccccc1-3 (configuration not stated)
- survival at 100 µM (Staphylococcus aureus [5]): 65%
- survival at 100 µM (Staphylococcus aureus [6]): 74%

- MIC (Staphylococcus aureus [3]; [16]): 100 µM (≈ 42.6 µg/mL)
- MIC (Staphylococcus aureus [4]): 50 µM (≈ 21.3 µg/mL)
Compound: CCN(CC)c1nc2c(S(=O)(=O)c3ccccc3)nnn2c2cc([N+](=O)[O-])ccc12

Compound: COc1cc2c(N3CCN(c4ccccc4)CC3)nc3c(S(=O)(=O)c4ccc(C)cc4)nnn3c2cc1OC
- inhibition of growth at 100 µM (Staphylococcus aureus [1]; [15]): > 31%
- inhibition of growth at 100 µM (Staphylococcus aureus [2]): > 70%

Compound: COc1cc2c(N3CCCCC3)nc3c(S(=O)(=O)c4ccc(C)cc4)nnn3c2cc1OC
- inhibition of growth at 100 µM (Staphylococcus aureus [1]; [15]): > 31%

Compound: CCOCCN(CCOCC)c1nc2c(S(=O)(=O)c3ccc(C)cc3)nnn2c2cc(OC)c(OC)cc12
- inhibition of growth at 100 µM (Staphylococcus aureus [1]; [15]): 31%

- MIC (Staphylococcus aureus [3]): 25 µM (≈ 10.3 µg/mL)
Compound: CCN(CC)c1nc2c(S(=O)(=O)c3ccccc3)nnn2c2ccc(OC)cc12

Compound: CCN(CC)c1nc2c(S(=O)(=O)c3ccccc3)nnn2c2ccc([N+](=O)[O-])cc12
- inhibition of growth at 100 µM (Staphylococcus aureus [1]): > 31%

Compound: Cc1ccc(C2Nc3cc(C)c(C)cc3-n3c(-c4ccccc4)c4c(=O)n(C)c(=O)n(C)c4c32)o1 (configuration not stated)
- survival at 100 µM (Staphylococcus aureus [5]): 95%
- survival at 100 µM (Staphylococcus aureus [6]): 92%

Compound: CCN(CC)c1nc2c(S(=O)(=O)c3ccccc3)nnn2c2c(Cl)cccc12
- inhibition of growth at 100 µM (Staphylococcus aureus [1]; [15]): < 30%
- inhibition of growth at 100 µM (Staphylococcus aureus [2]): < 30%

Compound: Cn1c(=O)c2c(-c3ccccc3)n3c(c2n(C)c1=O)C(c1cc(Cl)ccc1O)Nc1ccccc1-3 (configuration not stated)
- survival at 100 µM (Staphylococcus aureus [5]): 35%
- survival at 100 µM (Staphylococcus aureus [6]): 78%

Compound: Cc1cc2c(cc1C)-n1c(-c3ccccc3)c3c(=O)n(C)c(=O)n(C)c3c1C(c1ccco1)N2 (configuration not stated)
- survival at 100 µM (Staphylococcus aureus [5]): 94%
- survival at 100 µM (Staphylococcus aureus [6]): 103%

- MIC (Staphylococcus aureus [3]; [16]): 25 µM (≈ 9.89 µg/mL)
Compound: CCN(CC)c1nc2c(S(=O)(=O)c3ccccc3)nnn2c2ccc(C)cc12
- inhibition of growth at 100 µM (Staphylococcus aureus [2]): < 30%

- MIC (Staphylococcus aureus [3]; [16]): 6.3 µM (≈ 3.05 µg/mL)
Compound: CCCN(CCC)c1nc2c(S(=O)(=O)c3ccc(C)cc3)nnn2c2cc(OC)c(OC)cc12

Compound: Cn1c(=O)c2c(-c3ccccc3)n3c(c2n(C)c1=O)C(c1ccc(F)cc1)Nc1ccccc1-3 (configuration not stated)
- survival at 100 µM (Staphylococcus aureus [5]): 26%
- survival at 100 µM (Staphylococcus aureus [6]): 48%

Compound: Cc1ccc(C2Nc3ccccc3-n3c(-c4ccccc4)c4c(=O)n(C)c(=O)n(C)c4c32)o1 (configuration not stated)
- survival at 100 µM (Staphylococcus aureus [5]): 101%
- survival at 100 µM (Staphylococcus aureus [6]): 110%

Compound: CCN(CC)c1nc2c(S(=O)(=O)c3ccc(Cl)cc3)nnn2c2cc(OC)c(OC)cc12
- MIC (Staphylococcus aureus [3]; [16]): 0.3 µM (≈ 0.143 µg/mL)
- inhibition of growth at 100 µM (Staphylococcus aureus [2]): < 30%
- MIC (Staphylococcus aureus [7]): 0.3 µM (≈ 0.143 µg/mL)
- MIC (Staphylococcus aureus [8]): 0.3 µM (≈ 0.143 µg/mL)
- MIC (Staphylococcus aureus [9]): 0.6 µM (≈ 0.286 µg/mL)
- MIC (Staphylococcus aureus [10]): 0.6 µM (≈ 0.286 µg/mL)
- Activity (Mus musculus [11]): Toxic
- Activity (Mus musculus [12]): Non-toxic
- fold change (FC) (Staphylococcus aureus [13]): 8

Compound: COc1ccc(-c2c3c(=O)n(C)c(=O)n(C)c3c3n2-c2ccccc2NC3c2ccccc2OC)cc1 (configuration not stated)
- survival at 100 µM (Staphylococcus aureus [5]): 67%
- survival at 100 µM (Staphylococcus aureus [6]): 85%

Compound: COc1ccc(-c2c3c(=O)n(C)c(=O)n(C)c3c3n2-c2ccccc2NC3c2ccco2)cc1 (configuration not stated)
- survival at 100 µM (Staphylococcus aureus [5]): 57%
- survival at 100 µM (Staphylococcus aureus [6]): 69%

Compound: Cn1c(=O)c2c(-c3ccccc3)n3c(c2n(C)c1=O)C(c1ccco1)Nc1ccccc1-3 (configuration not stated)
- survival at 100 µM (Staphylococcus aureus [5]): 100%
- survival at 100 µM (Staphylococcus aureus [6]): 98%

Compound: CCN(CC)c1nc2c(S(=O)(=O)c3ccccc3)nnn2c2ccc(F)cc12
- inhibition of growth at 100 µM (Staphylococcus aureus [1]; [15]): > 31%
- inhibition of growth at 100 µM (Staphylococcus aureus [2]): < 30%

Compound: Cc1ccc(-c2c3c(=O)n(C)c(=O)n(C)c3c3n2-c2ccccc2NC3c2ccc(C#N)cc2)cc1 (configuration not stated)
- survival at 100 µM (Staphylococcus aureus [5]): 95%
- survival at 100 µM (Staphylococcus aureus [6]): 81%

Compound: CCN(CC)c1nc2c(S(=O)(=O)c3ccccc3)nnn2c2ccc(Cl)cc12
- MIC (Staphylococcus aureus [3]; [16]): 3.6 µM (≈ 1.5 µg/mL)
- inhibition of growth at 100 µM (Staphylococcus aureus [2]): < 30%
- MIC (Staphylococcus aureus [7]): 6.3 µM (≈ 2.62 µg/mL)
- MIC (Staphylococcus aureus [8]): 12.5 µM (≈ 5.2 µg/mL)
- MIC (Staphylococcus aureus [9]): 6.3 µM (≈ 2.62 µg/mL)
- MIC (Staphylococcus aureus [10]): 6.3 µM (≈ 2.62 µg/mL)
- Activity (Staphylococcus aureus [14]): Active

- MIC (Staphylococcus aureus [3]; [16]): 12.5 µM (≈ 5.75 µg/mL)
Compound: CCN(CC)c1nc2c(S(=O)(=O)c3ccccc3)nnn2c2ccc(Br)cc12

- MIC (Staphylococcus aureus [3]; [16]): 2.5 µM (≈ 1.14 µg/mL)
Compound: CCN(CC)c1nc2c(S(=O)(=O)c3ccc(C)cc3)nnn2c2cc(OC)c(OC)cc12
- inhibition of growth at 100 µM (Staphylococcus aureus [2]): < 30%

Compound: CCN(CC)c1nc2c(S(=O)(=O)c3ccccc3)nnn2c2cccc(Cl)c12
- inhibition of growth at 100 µM (Staphylococcus aureus [1]; [15]): < 30%
- inhibition of growth at 100 µM (Staphylococcus aureus [2]): < 30%

Compound: CCN(CC)c1nc2c(S(=O)(=O)c3ccccc3)nnn2c2cc(OC)c(OC)cc12
- MIC (Staphylococcus aureus [3]; [16]): 1.8 µM (≈ 0.795 µg/mL)
- inhibition of growth at 100 µM (Staphylococcus aureus [2]): < 30%
- MIC (Staphylococcus aureus [7]): 3.1 µM (≈ 1.37 µg/mL)
- MIC (Staphylococcus aureus [8]): 3.1 µM (≈ 1.37 µg/mL)
- MIC (Staphylococcus aureus [9]): 3.1 µM (≈ 1.37 µg/mL)
- MIC (Staphylococcus aureus [10]): 3.1 µM (≈ 1.37 µg/mL)

Compound: CCN(CC)c1nc2c(S(=O)(=O)c3ccccc3)nnn2c2cc(OC)ccc12
- inhibition of growth at 100 µM (Staphylococcus aureus [1]; [15]): > 31%
- inhibition of growth at 100 µM (Staphylococcus aureus [2]): > 31%
